Source: PubChem BioAssay AID2060610 (Molecular Pharmacology Branch, DTP, NCI, 2025)
Values belong to the compound of their own block, whether it stands above or below them.

Tested on: 616215-338-R-J1-PDC complex spheroids, viability % test/control
Assay: Anticancer human tumor 616215-338-R-J1-PDC patient-derived colon adenocarcinoma cell line growth inhibition [CLK]
Conditions: for viability, T/C: stronger effect = lower value
Text: A high-throughput screen of multi-cell type tumor spheroids was designed to identify active combinations of […] and targeted small molecules. Complex spheroids include a stromal component modeled by human endothelial cells (HUVEC) and fibroblasts modeled by human mesenchymal stem cells (MSCs). The concentration ranges selected for each drug and investigational agent were based upon clinically achievable concentrations if the clinical Cmax of the agent was known.
Compounds. The drugs and investigational agents: cirtuvivint (SM08502; NSC835563), CC-671 (NSC850746), vemurafenib (NSC761431), tapotoclax (NSC804041), sotorasib (NSC818433), adagrasib (NSC831453), MRTX-1133 (NSC836407), BAY2416964 (NSC825713), copanlisib (NSC816437), inavolisib (NSC800729), abemaciclib (NSC768073), osimertinib (NSC779217), entinostat (NSC756642), eltanexor (KPT-8602, NSC794443), venetoclax (NSC766270), ceralasertib (NSC777638), bortezomib (NSC756655), olaparib (NSC753686), talazoparib (NSC767125), alisertib (NSC759677), peposertib (NSC802822), gemcitabine (NSC613327), 5-fluorouracil (NSC19893), SN-38 (NSC673596), oxaliplatin (NSC266046), paclitaxel (NSC125973), and doxorubicin (NSC123127), were obtained from the National Cancer Institute (NCI) Developmental Therapeutics Program Chemical Repository. The FDA-approved anticancer drug set is available from the Developmental Therapeutics Program at https://dtp.cancer.gov/organization/dscb/obtaining/available plates.htm. […] The stock solutions were prepared in dimethyl sulfoxide (DMSO, Sigma-Aldrich, St. Louis, MO, cat. D2650), except for the platinum complexes which were prepared in saline (Quality Biological, Gaithersburg, MD, cat. 114-055-101), at 800-fold the tested concentration and stored at -70 degrees C prior to their use. All drugs and investigational agents were tested over a range starting from a high concentration at or near the clinical Cmax and decreasing in half-log increments. If the clinical Cmax for an agent had not been determined, the highest concentration tested was 10 microM.
Cell Culture. All cells were maintained in an incubator at 37 degrees C and 5% CO2 with 95% humidity. The PDC lines were cultured according to standard operating procedures established by the NCI PDMR. Briefly, all PDCs were thawed and cultured in Matrigel-coated flasks prepared with a working solution of 1X Ham's F-12 nutrient mix, without supplementation (Invitrogen, Waltham, MA, cat. 11765054), 100 U/mL penicillin-streptomycin (Invitrogen, cat. 15140122), and 2.5% Matrigel (Corning Inc., Corning, NY, cat. 354248) for the first three passages. The 947758-054-R-J2-PDC line was cultured in 6B/Colon 1A media, which includes advanced DMEM/F-12 (Thermo Fisher Scientific, cat. 12634028), 10 mM HEPES (Thermo Fisher Scientific, cat. 15630080), 1X GlutaMAX supplement (Thermo Fisher Scientific, cat. 35050061), 0.1 mg/mL primocin (InvivoGen, cat. ant-pm-2), 10% defined fetal bovine serum, heat inactivated (HyClone Laboratories Inc., cat. SH30070.03HI), 1.25 mM N-Acetyl-L-cysteine (Sigma-Aldrich, cat. A9165), 10 mM nicotinamide (Sigma-Aldrich, cat. N0636), 1X B-27 supplement (Thermo Fisher Scientific, cat. 17504044), 1X N-2 supplement (Thermo Fisher Scientific, cat. 17502048), and 10 microM Y-27632 dihydrochloride (Tocris Bioscience, cat. 1254). The 876862-298-R-J1-PDC was cultured in 6E media, which includes all 6B/Colon 1A media components plus 50% L-WRN conditioned media (ATCC, cat. CRL-3276), 50 ng/mL recombinant human EGF recombinant protein (hEGF; Thermo Fisher Scientific, cat. PHG0311), 10 ng/mL recombinant human fibroblast growth factor 10 (hGFG-10; PeproTech, cat. 100-26), 1 ng/mL recombinant human fibroblast growth factor 2 (hFGF-2; PeproTech, cat. 100-18B), and 1 µM prostaglandin E2 (PGE2; Tocris, cat. 2296). The 227483-062-R1-J1-PDC line was cultured in Panc media, containing all 6E components except hFGF-2, with the addition of 500 nM SB-431542 (Selleckchem, cat. S1067) and 10 nM gastrin (Tocris, cat. 3006). […]

[1] = curve of first compound, second compound 0.0316 µM
[2] = curve of first compound, second compound 0.1 µM
[3] = curve of first compound, second compound 0.316 µM
[4] = curve of first compound, second compound 1 µM
[5] = curve of first compound, second compound 3.16 µM
[6] = curve of first compound, second compound 10 µM
[7] = second compound 0.0316 µM, first compound 0.0316 µM
[8] = second compound 0.0316 µM, first compound 0.1 µM
[9] = second compound 0.0316 µM, first compound 0.316 µM
[10] = second compound 0.0316 µM, first compound 1 µM
[11] = second compound 0.1 µM, first compound 0.0316 µM
[12] = second compound 0.1 µM, first compound 0.1 µM
[13] = second compound 0.1 µM, first compound 0.316 µM
[14] = second compound 0.1 µM, first compound 1 µM
[15] = second compound 0.316 µM, first compound 0.0316 µM
[16] = second compound 0.316 µM, first compound 0.1 µM
[17] = second compound 0.316 µM, first compound 0.316 µM
[18] = second compound 0.316 µM, first compound 1 µM
[19] = second compound 1 µM, first compound 0.0316 µM
[20] = second compound 1 µM, first compound 0.1 µM
[21] = second compound 1 µM, first compound 0.316 µM
[22] = second compound 1 µM, first compound 1 µM
[23] = second compound 3.16 µM, first compound 0.0316 µM
[24] = second compound 3.16 µM, first compound 0.1 µM
[25] = second compound 3.16 µM, first compound 0.316 µM
[26] = second compound 3.16 µM, first compound 1 µM
[27] = second compound 10 µM, first compound 0.0316 µM
[28] = second compound 10 µM, first compound 0.1 µM
[29] = second compound 10 µM, first compound 0.316 µM
[30] = second compound 10 µM, first compound 1 µM
[31] = second compound 0.0316 µM, first compound 3.16 µM
[32] = second compound 0.0316 µM, first compound 10 µM
[33] = second compound 0.1 µM, first compound 3.16 µM
[34] = second compound 0.1 µM, first compound 10 µM
[35] = second compound 0.316 µM, first compound 3.16 µM
[36] = second compound 0.316 µM, first compound 10 µM
[37] = second compound 1 µM, first compound 3.16 µM
[38] = second compound 1 µM, first compound 10 µM
[39] = second compound 3.16 µM, first compound 3.16 µM
[40] = second compound 3.16 µM, first compound 10 µM
[41] = second compound 10 µM, first compound 3.16 µM
[42] = second compound 10 µM, first compound 10 µM
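Also: spheroids exposed to agents for 7 days.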
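For viability, T/C in this document: 100% = DMSO vehicle wells.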

IC50 [1]: 0.208 µM
IC50 [2]: 0.0459 µM
IC50 [3]: < 0.00316 µM
IC50 [4]: < 0.00316 µM
IC50 [5]: < 0.00316 µM
IC50 [6]: < 0.00316 µM
Compound: COc1c(OCCCN2CCOCC2)ccc2c3n(c(=NC(=O)c4cnc(N)nc4)nc12)CCN3 + CNC(=O)c1ccc(Nc2nc(OC3CCCC3)c3c(-c4ccc5nc(C)oc5c4)c[nH]c3n2)c(OC)c1
viability, T/C (second compound 0.0316 µM, first compound 0.00316 µM): 92.4%
viability, T/C (second compound 0.0316 µM, first compound 0.01 µM): 94.7%
viability, T/C [7]: 115%
viability, T/C [8]: 69.1%
viability, T/C [9]: 45.7%
viability, T/C [10]: 32.3%
viability, T/C (second compound 0.1 µM, first compound 0.00316 µM): 62.4%
viability, T/C (second compound 0.1 µM, first compound 0.01 µM): 61.5%
viability, T/C [11]: 57.7%
viability, T/C [12]: 34%
viability, T/C [13]: 26.6%
viability, T/C [14]: 26.1%
viability, T/C (second compound 0.316 µM, first compound 0.00316 µM): 41.4%
viability, T/C (second compound 0.316 µM, first compound 0.01 µM): 39.3%
viability, T/C [15]: 26.5%
viability, T/C [16]: 20.6%
viability, T/C [17]: 14.5%
viability, T/C [18]: 12.5%
viability, T/C (second compound 1 µM, first compound 0.00316 µM): 32.9%
viability, T/C (second compound 1 µM, first compound 0.01 µM): 30.1%
viability, T/C [19]: 21.2%
viability, T/C [20]: 13.1%
viability, T/C [21]: 9.29%
viability, T/C [22]: 9.49%
viability, T/C (second compound 3.16 µM, first compound 0.00316 µM): 35.6%
viability, T/C (second compound 3.16 µM, first compound 0.01 µM): 31.1%
viability, T/C [23]: 21.4%
viability, T/C [24]: 12%
viability, T/C [25]: 9.19%
viability, T/C [26]: 8.84%
viability, T/C (second compound 10 µM, first compound 0.00316 µM): 35.3%
viability, T/C (second compound 10 µM, first compound 0.01 µM): 29.4%
viability, T/C [27]: 19.2%
viability, T/C [28]: 11.1%
viability, T/C [29]: 10.4%
viability, T/C [30]: 7.75%

IC50 [1]: 5.08 µM
IC50 [2]: 0.085 µM
IC50 [3]: < 0.0316 µM
IC50 [4]: < 0.0316 µM
IC50 [5]: < 0.0316 µM
IC50 [6]: < 0.0316 µM
Compound: Nc1ccccc1NC(=O)c1ccc(CNC(=O)OCc2cccnc2)cc1 + CNC(=O)c1ccc(Nc2nc(OC3CCCC3)c3c(-c4ccc5nc(C)oc5c4)c[nH]c3n2)c(OC)c1
viability, T/C [7]: 86.2%
viability, T/C [8]: 82%
viability, T/C [9]: 80.2%
viability, T/C [10]: 96.7%
viability, T/C [31]: 72.5%
viability, T/C [32]: 17.7%
viability, T/C [11]: 56.1%
viability, T/C [12]: 48.9%
viability, T/C [13]: 37.3%
viability, T/C [14]: 36.1%
viability, T/C [33]: 36.7%
viability, T/C [34]: 10.6%
viability, T/C [15]: 40.7%
viability, T/C [16]: 39.4%
viability, T/C [17]: 35.9%
viability, T/C [18]: 34%
viability, T/C [35]: 29.3%
viability, T/C [36]: 7.21%
viability, T/C [19]: 42.7%
viability, T/C [20]: 36.7%
viability, T/C [21]: 32.8%
viability, T/C [22]: 29.1%
viability, T/C [37]: 24.8%
viability, T/C [38]: 6.92%
viability, T/C [23]: 35.1%
viability, T/C [24]: 35.8%
viability, T/C [25]: 28.5%
viability, T/C [26]: 26.9%
viability, T/C [39]: 22.7%
viability, T/C [40]: 3.91%
viability, T/C [27]: 34.3%
viability, T/C [28]: 30.8%
viability, T/C [29]: 28%
viability, T/C [30]: 24%
viability, T/C [41]: 23.8%
viability, T/C [42]: 3.95%

Compound: CC1COCCN1c1cc(C2(S(C)(=N)=O)CC2)nc(-c2ccnc3[nH]ccc23)n1 (stereo not drawn) + CN1CCN(c2cc(C(=O)Nc3cc4cc(-c5cnn(C)c5)ccc4cn3)ccn2)CC1
IC50 [1]: > 10 µM
IC50 [2]: 4.97 µM
IC50 [3]: < 0.0316 µM
IC50 [4]: < 0.0316 µM
IC50 [5]: < 0.0316 µM
IC50 [6]: < 0.0316 µM
viability, T/C [7]: 98.6%
viability, T/C [8]: 99.8%
viability, T/C [9]: 95.3%
viability, T/C [10]: 105%
viability, T/C [31]: 102%
viability, T/C [32]: 54.7%
viability, T/C [11]: 117%
viability, T/C [12]: 106%
viability, T/C [13]: 96.6%
viability, T/C [14]: 102%
viability, T/C [33]: 60.5%
viability, T/C [34]: 33.5%
viability, T/C [15]: 34.7%
viability, T/C [16]: 29.4%
viability, T/C [17]: 28.4%
viability, T/C [18]: 21.3%
viability, T/C [35]: 23.9%
viability, T/C [36]: 15.4%
viability, T/C [19]: 0.14%
viability, T/C [20]: 2.28%
viability, T/C [21]: 2.21%
viability, T/C [22]: 0.15%
viability, T/C [37]: 0.1%
viability, T/C [38]: 2.62%
viability, T/C [23]: 0.14%
viability, T/C [24]: 0.12%
viability, T/C [25]: 0.15%
viability, T/C [26]: 0.14%
viability, T/C [39]: 2.05%
viability, T/C [40]: 3.08%
viability, T/C [27]: 0.16%
viability, T/C [28]: 0.15%
viability, T/C [29]: 0.21%
viability, T/C [30]: 0.23%
viability, T/C [41]: 0.23%
viability, T/C [42]: 0.24%

IC50 (compound alone, run of 08/01/2023): 177 nM [middle of 12 runs]
Compound: CNC(=O)c1ccc(Nc2nc(OC3CCCC3)c3c(-c4ccc5nc(C)oc5c4)c[nH]c3n2)c(OC)c1
viability, T/C (compound 0.0316 µM): 90.7% [middle of 12 runs]
viability, T/C (compound 0.1 µM): 55.7% [middle of 12 runs]
viability, T/C (compound 0.316 µM): 44.2% [middle of 12 runs]
viability, T/C (compound 1 µM): 45.1% [middle of 12 runs]
viability, T/C (compound 3.16 µM): 42.3% [middle of 12 runs]
viability, T/C (compound 10 µM): 40.3% [middle of 12 runs]
